Consider two molecules from paper PMC9927415, “Tyrosine Kinase Inhibitors Display Potent Activity against Cryptosporidium parvum” (Microbiology Spectrum, 2022).

Read-outs that look alike come from different tables or passages of the source.

The subject of one series is Cryptosporidium parvum. As to the kind of experiment: In vitro C. parvum growth inhibition assay (Nluc reporter strain in HCT-8 cells). In kind it is cell-based. The note with it: 48 h. As to the method:
Host intestinal epithelial adenocarcinoma (HCT-8) cells were seeded into 96-well plates and grown to 70% confluence in RPMI medium supplemented with L-glutamine, 10% fetal bovine serum (FBS), 0.1 U/mL penicillin, 0.1 μg/mL streptomycin, 0.25 μg/mL amphotericin B and 1 mM sodium pyruvate. The host cell medium was aspirated and replaced with Cryptosporidium infection media (RPMI containing 2% FBS, 0.1 U/mL penicillin, 0.1 μg/mL streptomycin and 0.25 μg/mL amphotericin B) media prior to infection. The HCT-8 cells were infected with bleached and washed Nluc expressing C. parvum oocysts (2,000 oocysts per well) to which 10 μM compounds were added and plates were incubated for 48 h at 37°C, 5% CO2 and luminescence was measured using the protocol described previously ([14], [58]). […] Negative (no drug) and positive control (10 μM nitazoxanide) wells (three replicates each) were also set-up in the same plate. After the incubation, medium was removed and 100 μL of NanoGlo lysis buffer (Promega) was added to the wells followed by incubation for 15 min at 37°C, 5% CO2. The lysate was suspended by pipetting and 100 μL of NanoGlo lysis buffer containing 1:50 of NanoGlo substrate (Promega) was added to each well. […] For the dose response assay, compounds were tested in triplicate wells in two independent experiments and percent luminescence of no drug was calculated.
EC50 values were calculated using a nonlinear regression (curve fit of log-dose versus response) in GraphPad Prism version 8.

Series [1] is described as follows: Host cell cytotoxicity assay (CellTiter-Glo). The note with it: human. As to the method: HepG2 cells were grown in Eagle’s Minimum Essential Medium (MEM) containing 10% FBS, 1% nonessential amino acids (NEAA) and 1% penicillin/streptomycin to >50% confluence prior to harvesting. Cells were suspended in media and 3000 cells per well were added onto 384-well clear bottom plates. Prior to addition of the cell suspension, the screening compounds (250 nl) were predispensed into plates using a liquid handler. Plates were incubated for 48 h at 37°C, 5% CO2. After 48 h of incubation, plates were equilibrated at room temperature for 30 min before luminescence signal was measured using CellTiter-Glo Reagent. Plates were kept at room temperature for 10 min to stabilize the signal and then read using a ViewLux luminescence reader. The HepG2 CC50 (from the host cell cytotoxicity assays) and C. parvum mean EC50 (from parasite growth inhibition assays) values were used to calculate selectivity index.
(Cellular ATP, detected with luciferase, serves as a proxy for viable cell number.)

As a reminder, the inhibition is the relative decrease from the control value, in per cent. By CC50 is commonly meant the concentration that lowers cell viability or growth by half. High values mean better tolerance by the cells, low ones harm at low concentration.

Regarding `CC(=O)Oc1ccccc1C(=O)Nc1ncc([N+](=O)[O-])s1` [Nitazoxanide, nitazoxanide, reference compound], the inhibition at 10 µM in the series with Cryptosporidium parvum (10 μM, read-out: inhibition of C. parvum growth) was over 90%; in the series with Cryptosporidium parvum (primary screen, 10 μM compound, three technical replicates, read-out: Mean percent inhibition of C. parvum growth) it was 94.5%.

In the case of `Cc1ccc(O)cc1Nc1ccnc2ccc(S(C)(=O)=O)cc12` [Compound 5], the CC50 at 48 h in series [1] was found to be 15.8 µM.
